Laboratory results as given in patent US20080027141A1, “1,3-Dihydroxyl-9,10-anthraquinone and 3-[(3-amino)-propoxy]- 9,10-anthraquinone derivatives and pharmaceutical compositions comprising the same” (Kaohsiung Medical University, priority 2006, published 2008).
Read-outs that look alike come from different tables or passages of the source.

Tests used:
[1] = system: HepG2 cells (human hepatoma); conditions: Wei, Bai-Luh et al. (2000); read-out: ED50, HepG2 (applicants' earlier study); cited from earlier work
[2] = system: Hep3B cells (human hepatoma); conditions: Wei, Bai-Luh et al. (2000); read-out: ED50, Hep3B (applicants' earlier study); cited from earlier work
[3] = system: HT-29 cells (human colorectal adenocarcinoma); assay: In vitro anticancer assay (cytotoxicity), MTT, HT-29; conditions: for EC50: Homo sapiens, HT-29, read-out: Cytotoxicity ED50, HT-29
Experimental: (§1) For the microassay, the growth medium was supplemented with 10 mM HEPES buffer (pH 7.3) and incubated at 37° C. in a CO2 incubator.
(§2) The cytotoxicity was determined by colorimetric MTT (3-(4,5-dimethylthiazole-2-yl)-2,5-diphenyl-1H-tetrazolium bromide)(Sigma, St. Louis, Mo.) assay as described previously (Wei, Bai-Luh et al. (2000), Eur. J. Med. Chem., 35, 1089-1098). Briefly, cells (5×10^3/well) were plated in 96-well plates and incubated in medium for 6 h, followed by addition of serial dilutions (50 μL/well) of each of the tested compounds. After incubation at 37° C. for 5 or 6 days, the cells were pulsed with 10 μL of MTT (5 mg/mL) and incubated for an additional 4 h at 37° C. Reduced MTT was measured spectrophotometrically using a Dynatech MR 5000 microplate reader (Dynatech Laboratories, Va.) at 550 nm after lysis of cells with 100 μL of 10% SDS in 0.01 M HCl. Control wells contained medium plus cells (total absorbance) or medium alone (background absorbance). Cell death was calculated as the percentage of MTT inhibition:
(§3) In the experiment, 5-fluorouracil(5-Fu) was used as a positive control.

[4] = system: HepG2 cells (human hepatoma); assay: In vitro anticancer assay (cytotoxicity), MTT, HepG2; conditions: for EC50: Homo sapiens, HepG2, read-out: Cytotoxicity ED50, HepG2; for Cytotoxic activity against HepG2 cells (in words): in vitro
Experimental: as §1, §2, §3

[5] = system: Hep3B cells (human hepatoma); assay: In vitro anticancer assay (cytotoxicity), MTT, Hep3B; conditions: for EC50: Homo sapiens, Hep3B, read-out: Cytotoxicity ED50, Hep3B
Experimental: as §1, §2, §3

[6] = system: MCF-7 cells (human breast adenocarcinoma); assay: In vitro anticancer assay (cytotoxicity), MTT, MCF-7; conditions: for EC50: Homo sapiens, MCF7, read-out: Cytotoxicity ED50, MCF-7; for Cytotoxic activity against MCF-7 cells (in words): in vitro
Experimental: as §1, §2, §3

[7] = system: HT-29 cells (human colorectal adenocarcinoma)
Experimental: as §1, §2, §3

[8] = system: Hep3B cells (human hepatoma)
Experimental: as §1, §2, §3

[9] = system: HepG2 cells (human hepatoma)
Experimental: as §1, §2, §3

MCF-7 cells [10] = assay: Flow cytometry analysis (cell cycle, sub-G1, propidium iodide); assay type: cell-based, human
Experimental: DNA contents were analyzed by flow cytometry, and apoptosis was measured by the accumulation of sub-G1 DNA contents in cells. Results were representative of three independent experiments; and
Flow cytometry was used to determine the change of cell cycle of human cancer cells caused by the treatment of a compound according to this invention.
MCF cells (1×10^4 cells/mL) were treated with various concentrations (6.9, 13.7, and 27.5 μM) of Compound 16 for different time periods (24 h, 48 h and 72 h), followed by washing with PBS so as to terminate the reaction. After fixation with 4% paraformaldehyde/PBS (pH 7.4) at room temperature for 30 min, the cells were centrifuged at 1,000 rpm for 10 min and then permeabilized with 0.1% Triton-X-100/0.1% sodium citrate at 4° C. for 2 min. Subsequently, propidium iodide (Sigma) in PBS (10 μg/mL) was added to stain the cells at 37° C. for 30 min. The intensity of fluorescence was measured with a FACScan flow cytometer (Becton Dickinson, Mountain View, Calif.). A minimum of 5000 cell counts was collected for the analysis by LYSIS II Software.
It has been recognized that apoptotic cells have reduced DNA stainability with a variety of fluorochromes (Ojeda, F. et al. (1990), Cell Immunol., 125:535-539; Afanasev, V. N. et al. (1986), FEBS Lett., 194: 347-350). The appearance of cells with low DNA stainability forms a “sub-G1 peak”, which has been considered to be the hallmark of cell death by apoptosis (Darzynkiewicz, Z. et al. (1992), Cytometry, 13, 795-808). […] In this invention, the applicants proposed that the NHA derivatives might induce cell death by the same way. MCF-7 cells were treated with different concentrations of representative Compound 16 for different time periods.

MCF-7 cells [11] = assay: DNA fragmentation assay (agarose gel electrophoresis); assay type: cell-based, human; conditions: 48 and 72 h incubation, 6.9, 13.7 and 27.5 μM
Experimental: Results were representative of three independent experiments.
DNA fragmentation in general is used to characterize cell death by apoptosis (Wyllic, A. H. et al. (1980), Int. Rev. Cytol., 68:251-306; Arends, M. J. and Wyllic, A. H. (1991), Int. Rev. Exp. Pathol., 32:223-254). Apoptosis of MCF-7 cells after treatment with the representative Compound 16 was also studied by DNA fragmentation assay.
MCF cells (1×10^4 cells/mL) in 150-mm plates were treated with various concentrations (6.9, 13.7, and 27.5 μM) of Compound 16 for different time periods (24 h, 48 h and 72 h), followed by washing with PBS so as to terminate the reaction. After the addition of 100 μL lysis buffer [1% of NP-40 (Sigma) in 20 mM EDTA, 50 mM Tris-HCl, pH 7.5] and mixing, the resultant cell lysates were centrifuged at 14,000 rpm for 5 min and the supernatants were collected. The supernatants were incubated with 50 μL of RNase A (20 mg/mL) and 20 μL of SDS (10%) at 56° C. for 2 h. Thereafter, 35 μL of proteinase K (20 mg/mL) was added and the resultant mixture was incubated at 37° C. overnight. DNA fragments were precipitated after the addition of 150 μL of 10M NH4OAc and 1.2 mL of 100% ethanol at −20° C. overnight. After centrifuging and drying, the thus-obtained DNA pellets were re-suspended in 15 μL Tris-EDTA buffer and electrophoresed on a 1% agarose gel in TBE buffer at 30 V for 8 h. […]

[12] = system: MCF-7 cells (human breast adenocarcinoma)
Experimental: as §1, §2, §3

[13] = system: several cancer cell lines; assay: Cytotoxic effects against several cancer cell lines in vitro; assay type: cell-based
Experimental: The cytotoxicity was determined by colorimetric MTT (3-(4,5-dimethylthiazole-2-yl)-2,5-diphenyl-1H-tetrazolium bromide)(Sigma, St. Louis, Mo.) assay as described previously (Wei, Bai-Luh et al. (2000), Eur. J. Med. Chem., 35, 1089-1098). Briefly, cells (5×10^3/well) were plated in 96-well plates and incubated in medium for 6 h, followed by addition of serial dilutions (50 μL/well) of each of the tested compounds. After incubation at 37° C. for 5 or 6 days, the cells were pulsed with 10 μL of MTT (5 mg/mL) and incubated for an additional 4 h at 37° C. Reduced MTT was measured spectrophotometrically using a Dynatech MR 5000 microplate reader (Dynatech Laboratories, Va.) at 550 nm after lysis of cells with 100 μL of 10% SDS in 0.01 M HCl. Control wells contained medium plus cells (total absorbance) or medium alone (background absorbance).

Row | Compound | EC50 [3] [µM] | EC50 [4] [µM] | EC50 [5] [µM] | EC50 [6] [µM] | also measured
1 | CN(C)CCCOc1cc(O)c2c(c1)C(=O)c1ccccc1C2=O [Compound 19, 1-hydroxy-3-[3-(dimethylamino)-propoxy]-9,10-anthraquinone] |  |  |  |  | EC50 [1]: ~2.6 µM; EC50 [2]: ~7.1 µM
2 | O=c1[nH]cc(F)c(=O)[nH]1 [Compound 5-FU, 5-fluorouracil, reference compound] | 0.57 | 0.25 | 0.55 |  | 
3 | CC(C)(C)NCCCOc1cc(O)c2c(c1)C(=O)c1ccccc1C2=O [Compound 7, 3-[3-(tert-Butylamino)-propoxy]-1-hydroxy-9,10-anthraquinone] | 7.93 | 5.3 | 6.8 |  | 
4 | O=C1c2ccccc2C(=O)c2cc(OCCCNC3CCCCC3)ccc21 [Compound 15, 3-[3-(Cyclohexylamino)-propoxy]-9,10-anthraquinone] | 3.86 | 16 | 4.96 | 5.79 | Cytotoxic activity against MCF-7 cells (in words) [6]: stronger cytotoxic activities; Cytotoxic activity against HT-29 cells (in words) [7]: stronger cytotoxic activities; Cytotoxic activity against Hep3B cells (in words) [8]: stronger cytotoxic activities
5 | CC(C)CNCCCOc1ccc2c(c1)C(=O)c1ccccc1C2=O [Compound 13, 3-[3-(Isobutylamino)-propoxy]-9,10-anthraquinone] | 7.72 | 10.4 | 9.26 | 14.2 | 
6 | CC(C)NCCCOc1cc(O)c2c(c1)C(=O)c1ccccc1C2=O [Compound 6, 1-Hydroxy-3-[3-(isopropylamino)-propoxy]-9,10-anthraquinone] | 4.72 | 5.52 | 5.97 |  | 
7 | O=C1c2ccccc2C(=O)c2cc(OCCCBr)ccc21 [Compound 4, 3-(3-bromopropoxy)-9,10-anthraquinone] |  |  |  |  | Cytotoxic activity against HepG2 cells (in words) [9]: no significant cytotoxic activity; Cytotoxic activity against HT-29 cells (in words) [7]: no significant cytotoxic activity; Cytotoxic activity against Hep3B cells (in words) [8]: no significant cytotoxic activity
8 | CC(C)NCCCOc1ccc2c(c1)C(=O)c1ccccc1C2=O [Compound 11, 3-[3-(Isopropylamino)-propoxy]-9,10-anthraquinone] | 7.12 | 5.39 | 11.5 | 11.5 | Cytotoxic activity against HepG2 cells (in words) [9]: potent cytotoxic activity
9 | CCCCNCCCOc1ccc2c(c1)C(=O)c1ccccc1C2=O [Compound 12, 3-[3-(Butylamino)-propoxy]-9,10-anthraquinone] | 14.5 | 7.12 | 14.2 | 10.4 | 
10 | CN1CCN(CCCOc2ccc3c(c2)C(=O)c2ccccc2C3=O)CC1 [Compound 16] | 4.67 | 8.41 | 13.7 | 3.02 | Cytotoxic activity against MCF-7 cells (in words) [6]: potent cytotoxic activity; cell cycle effect (MCF-7 cells [10]; 6.9, 13.7, 27.5 μM): arrest G2/M and S phases; sub-G1 peak in DNA histograms (MCF-7 cells [10]; 6.9, 13.7, 27.5 μM, 24, 48, 72 h): detected; maximum apoptosis cells (MCF-7 cells [10]; at 72 h): 19.97%; Cytotoxic activity against HepG2 cells (in words) [9]: less potent cytotoxic activity; Cytotoxic activity against HT-29 cells (in words) [7]: potent cytotoxic activity; Cytotoxic activity against Hep3B cells (in words) [8]: less potent cytotoxic activity; DNA fragmentation (MCF-7 cells [11]): significantly observed
11 | O=C1c2ccccc2C(=O)c2cc(O)ccc21 [Compound 3, 3-hydroxy-9,10-anthraquinone] |  |  |  |  | Cytotoxic activity against HT-29 cells (in words) ([3]; in vitro): no significant cytotoxic activity; Cytotoxic activity against HepG2 cells (in words) [4]: no significant cytotoxic activity; Cytotoxic activity against Hep3B cells (in words) ([5]; in vitro): no significant cytotoxic activity
12 | CC(C)(C)NCCCOc1ccc2c(c1)C(=O)c1ccccc1C2=O [Compound 14] |  |  |  |  | EC50 [9]: 17.5 µM; EC50 [7]: 12.9 µM; EC50 [8]: 23.2 µM; EC50 [12]: 20.8 µM
13 | CCCCNCCCOc1cc(O)c2c(c1)C(=O)c1ccccc1C2=O [Compound 8, 3-[3-(Butylamino)-propoxy]-1-hydroxy-9,10-anthraquinone] | 6.52 | 4.42 | 7.93 |  | 
14 | O=C1c2ccccc2C(=O)c2c(O)cc(O)cc21 [Compound 1, 1,3-dihydroxy-9,10-anthraquinone] |  |  |  |  | Cytotoxic effects against several cancer cell lines (in words) [13]: failed to show cytotoxic effects
15 | CC(C)=CCc1c(O)cc(O)c2c1C(=O)c1ccccc1C2=O [Compound 5, 1,3-Dihydroxy-4-prenyl-9,10-anthraquinone] | 56.2 | 1.23 ± 0.05 | 9.09 | 172 | Cytotoxic activity against HepG2 cells (in words) [4]: potent cytotoxicity
16 | CCCNCCCOc1ccc2c(c1)C(=O)c1ccccc1C2=O [Compound 10, 3-[3-(Propylamino)-propoxy]-9,10-anthraquinone] | 6.19 | 8.92 | 12.4 | 8.36 | 
17 | O=C1c2ccccc2C(=O)c2c(O)cc(OCCCBr)cc21 [Compound 2, 1-hydroxy-3-(3-bromopropoxy)-9,10-anthraquinone] |  |  |  |  | Cytotoxic activity against HepG2 cells (in words) [9]: no significant cytotoxic activity; Cytotoxic activity against HT-29 cells (in words) [7]: no significant cytotoxic activity; Cytotoxic activity against Hep3B cells (in words) [8]: no significant cytotoxic activity
18 | CCN(CC)CCCOc1ccc2c(c1)C(=O)c1ccccc1C2=O [Compound 9, 3-[3-(Diethylamino)-propoxy]-9,10-anthraquinone] | 11.9 | 17.2 | 12.8 | 16.1 | 
